From PubChem BioAssay (NCI)
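Following 48 hours of exposure in 96-well plates, responses at five concentrations were used to interpolate endpoints linearly. Abbreviation: GI50, concentration required for 50% inhibition of growth. Definition used: TGI = concentration required for complete inhibition of growth.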

Legend:
Experiment in all cases: NCI tumour cell line growth inhibition, 48 h
MOLT-4 leukemia = system: MOLT-4 leukemia
OVCAR-5 ovarian = system: OVCAR-5 ovarian
KM12 colon = system: KM12 colon
SW-620 colon = system: SW-620 colon
SF-295 CNS = system: SF-295 CNS
ACHN renal = system: ACHN renal
COLO 205 colon = system: COLO 205 colon
A549 NSCLC = system: A549 NSCLC
PC-3 prostate = system: PC-3 prostate
NCI-H226 lung = system: NCI-H226 lung

Row | Compound | TGI (MOLT-4 leukemia) | TGI (OVCAR-5 ovarian) | TGI (KM12 colon) | TGI (SW-620 colon) | TGI (SF-295 CNS) | TGI (ACHN renal) | TGI (COLO 205 colon) | TGI (A549 NSCLC) | TGI (PC-3 prostate) | TGI (NCI-H226 lung) | GI50 (MOLT-4 leukemia) | GI50 (OVCAR-5 ovarian) | GI50 (KM12 colon) | GI50 (SW-620 colon) | GI50 (PC-3 prostate) | GI50 (SF-295 CNS) | GI50 (ACHN renal) | GI50 (COLO 205 colon) | GI50 (A549 NSCLC) | GI50 (NCI-H226 lung)
1 | Cc1cc(NS(=O)(=O)c2ccc(NC(=O)c3ccc(Cl)c4c(Nc5ccc(S(=O)(=O)Nc6cc(C)on6)cc5)c5ccccc5nc34)cc2)no1 | 77.3 µM | 38.6 µM | 44.3 µM | 66.1 µM | 57.4 µM | 53.7 µM | 41.4 µM | 62.4 µM |  |  |  |  |  |  |  |  |  |  |  | 
2 | O=NNc1ccc(-c2ccccc2)cn1 |  | > 77.4 µM | > 82.1 µM | > 77 µM | 62.2 µM | 15 µM | > 50.3 µM | > 92.3 µM | 61.2 µM | > 64.6 µM |  |  |  |  |  |  |  |  |  | 
3 | CC(C)(C)c1cc(C2c3cc4c(cc3OC(O)(CO)C2C(=O)O)OCO4)cc(C(C)(C)C)c1O (stereo not drawn) (tested in a mixture with another compound) | 20.3 µM |  |  | 33.4 µM | 30.3 µM | 28.2 µM | 37.8 µM | 48.1 µM |  |  |  |  |  |  |  |  |  |  |  | 
4 | CC(C)(C)C1=CC(=N/N=c2\scc(-c3ccccc3)n2Cc2ccccc2)C=C(C(C)(C)C)C1=O | > 100 µM | > 100 µM |  | > 100 µM | > 100 µM | > 100 µM | > 100 µM | > 100 µM |  | > 100 µM |  |  |  |  |  |  |  |  |  | 
5 | N#CN1CC[C@@H]2CC3(CCC2C1)OCCO3 (stereo partly drawn) | > 100 µM | > 100 µM | > 100 µM | > 100 µM | > 100 µM | > 100 µM | > 100 µM | > 100 µM |  | > 100 µM |  |  |  |  |  |  |  |  |  | 
6 | COc1ccc2nc3cc(Cl)ccc3c(Sc3ccc(N)cc3)c2c1 | 9.65 µM | 34.8 µM | 19.4 µM | 12.8 µM | 38.9 µM | 21.9 µM | 23.3 µM | 30.1 µM |  | 34.3 µM |  |  |  |  |  |  |  |  |  | 
7 | C=CC[P@]1(=O)O[C@H](c2ccccc2)C(C)N1C(C)C (stereo partly drawn) | > 100 µM | > 100 µM | > 100 µM | > 100 µM | > 100 µM | > 100 µM | > 100 µM | > 100 µM |  | > 100 µM |  |  |  |  |  |  |  |  |  | 
8 | CC1=CC(=O)NP(=O)(Oc2ccc(Cl)cc2)N1 (stereo not drawn) | > 100 µM | > 100 µM | > 100 µM | > 100 µM | > 100 µM | > 100 µM | > 100 µM | > 100 µM |  | > 100 µM |  |  |  |  |  |  |  |  |  | 
9 | COC(=O)CNC(=O)C(=O)c1c(O)c(O)c(C(C)C)c2cc(C)c(-c3c(C)cc4c(C(C)C)c(O)c(O)c(C(=O)C(=O)NCC(=O)OC)c4c3O)c(O)c12 | 16 µM | 9.13 µM | 7.29 µM | 6.94 µM | 6.89 µM | 5.54 µM | 3.16 µM | 8.01 µM | 7.26 µM |  | 1.36 µM | 1.56 µM | 1.39 µM | 1.96 µM | 1.84 µM | 1.46 µM | 1.42 µM | 1.28 µM | 2.13 µM | 
10 | CC(=O)/C=C1\CC(=O)N(C)c2ccccc2N1 | > 100 µM | > 100 µM | > 100 µM | > 100 µM | > 100 µM |  | > 100 µM | > 100 µM |  | > 100 µM |  |  |  |  |  |  |  |  |  | 
11 | CCN(Cc1ccc(Cl)c(Cl)c1)c1ccc2nc(N)nc(N)c2c1C |  | 2.13 µM | 1.67 µM | 1.6 µM |  | 1.78 µM | 1.69 µM |  | 3.16 µM | 4.3 µM |  | 0.209 µM | 0.048 µM | < 0.01 µM | 0.0284 µM | < 0.01 µM | < 0.01 µM | 0.148 µM |  | 0.96 µM
12 | O=C(NCCCN1CCN(CCCNC(=O)c2cccc3ccccc23)CC1)c1cccc2ccccc12 | > 100 µM | > 100 µM | > 100 µM | > 100 µM | > 100 µM | > 100 µM | > 100 µM | > 100 µM |  | > 100 µM |  |  |  |  |  |  |  |  |  | 
13 | COCN1COCN(C)C1=O |  | > 100 µM | > 100 µM | > 100 µM | > 100 µM | > 100 µM | > 100 µM | > 100 µM |  | > 100 µM |  |  |  |  |  |  |  |  |  | 
14 | Cn1cc(-c2ccc3c4ccccc4n(C)c3c2)c2ccccc21 | > 100 µM | > 100 µM | > 100 µM | > 100 µM | > 100 µM | > 100 µM | > 100 µM | > 100 µM |  | > 100 µM |  |  |  |  |  |  |  |  |  | 
15 | COC1CCCc2c(OC(C)=O)ccc(OC(C)=O)c21 (stereo not drawn) | > 100 µM | > 100 µM | > 100 µM | > 100 µM |  | > 100 µM |  | > 100 µM |  | > 100 µM |  |  |  |  |  |  |  |  |  | 
16 | O=CNC(Cc1cnc[nH]1)C(=O)O (stereo not drawn) |  | > 100 µM | > 100 µM | > 100 µM | > 100 µM | > 100 µM | > 100 µM | > 100 µM | > 100 µM | > 100 µM |  |  |  |  |  |  |  |  |  | 

Row | Compound | TGI (MOLT-4 leukemia) | TGI (OVCAR-5 ovarian) | TGI (KM12 colon) | TGI (SW-620 colon) | TGI (SF-295 CNS) | TGI (ACHN renal) | TGI (COLO 205 colon) | TGI (A549 NSCLC) | TGI (PC-3 prostate) | TGI (NCI-H226 lung) | GI50 (MOLT-4 leukemia) | GI50 (OVCAR-5 ovarian) | GI50 (KM12 colon) | GI50 (SW-620 colon) | GI50 (PC-3 prostate) | GI50 (SF-295 CNS) | GI50 (ACHN renal) | GI50 (COLO 205 colon) | GI50 (A549 NSCLC) | GI50 (NCI-H226 lung)
17 | CC(=O)OC1(Sc2ccccc2)CC2[C@H]3COC(C)(C)O[C@H]3CC[C@@]2(C)CC1=O (stereo partly drawn) | > 100 µM | > 100 µM | > 100 µM | > 100 µM | > 100 µM | > 100 µM | > 100 µM | > 100 µM |  | > 100 µM |  |  |  |  |  |  |  |  |  | 
18 | O=C(n1c2ccccc2c2n[nH]c(=S)nc21)C(F)(F)F | > 100 µM | > 100 µM | > 100 µM | > 100 µM | > 100 µM |  | > 100 µM | > 100 µM |  | > 100 µM |  |  |  |  |  |  |  |  |  | 
19 | O=c1[nH]c2nc3ccccc3c(=O)n2nc1Cc1ccccc1 | > 100 µM | > 100 µM | > 100 µM | > 100 µM | > 100 µM | > 100 µM | > 100 µM | > 100 µM |  | > 100 µM |  |  |  |  |  |  |  |  |  | 
20 | CCOC(=O)c1ccc(N=Cc2ccc(N(CCC#N)S(=O)(=O)c3ccccc3)cc2C)cc1 | > 100 µM | > 100 µM | > 100 µM | > 100 µM | > 100 µM |  | 52.9 µM | > 100 µM |  |  |  |  |  |  |  |  |  |  |  | 
21 | Cc1nc(-n2nc(-c3ccccc3)cc2-c2ccccc2)sc1C(=O)CC(=O)C(=O)Nc1ccc(Cl)c(Cl)c1 | > 100 µM | > 100 µM | > 100 µM | > 100 µM | > 100 µM | > 100 µM | > 100 µM | > 100 µM |  | > 100 µM |  |  |  |  |  |  |  |  |  | 
22 | O=[N+]([O-])c1ccc(Sc2cccc[n+]2[O-])c2nonc12 |  | 17.9 µM | 14.4 µM | 3.41 µM | 43.7 µM | 14.2 µM | 2.51 µM | > 57.2 µM | 13 µM | > 65.3 µM |  | 4.32 µM | 4.02 µM | 1.65 µM | 2.6 µM | 3.37 µM | 3.67 µM | 0.949 µM | 5.61 µM | 21 µM
23 | CC1(Cl)C(=O)NC(=O)N([C@H]2C[C@H](O)[C@@H](CO)O2)C1N=[N+]=[N-] (stereo partly drawn) | > 100 µM | > 100 µM | > 100 µM | > 100 µM | > 100 µM | > 100 µM | > 100 µM | > 100 µM |  | > 100 µM |  |  |  |  |  |  |  |  |  | 
24 | N.N.N.N.N#N.N#N.[Cl-].[Os+6] |  | > 100 µM | > 100 µM | > 100 µM | > 100 µM |  | > 100 µM | > 100 µM |  | > 100 µM |  | > 100 µM | > 100 µM | > 100 µM |  | > 100 µM |  | > 100 µM | > 100 µM | > 100 µM
25 | Cc1cccc(NC(=O)c2c(N)[n+]([O-])c3ccccc3[n+]2[O-])c1 | 81 µM | 42.3 µM | 30.3 µM | 21.4 µM | 23.3 µM | 29.9 µM | 27.2 µM | 34.6 µM |  | 27 µM |  |  |  |  |  |  |  |  |  | 
26 | O=C(c1ccccc1)c1nc2c(Cl)ccc(Cl)c2cc1C(Br)Br | 7.13 µM | 2.29 µM | 2.55 µM | 1.19 µM | 2.6 µM | 1.52 µM | 14.5 µM | 13.4 µM |  | 3.61 µM |  |  |  |  |  |  |  |  |  | 
27 | CN(C)CCNC(=O)c1ccc2c(c1)oc1cc3ccccc3c(=O)n12 | > 100 µM |  | 45.3 µM | 31.7 µM | 32.5 µM | 26 µM | 35.6 µM | 27.5 µM | > 100 µM |  | 97.7 µM |  | 17 µM | 15.5 µM | 28.7 µM | 14.2 µM | 12.5 µM | 15.6 µM | 12.3 µM | 
28 | Cc1nc2ccccc2c(=O)n1/N=C(\N=Nc1ccc(Cl)cc1)c1cccc(-c2ccco2)c1 | > 100 µM |  |  | > 100 µM | 94.6 µM | > 100 µM | 89.4 µM | > 100 µM |  |  |  |  |  |  |  |  |  |  |  | 
29 | Cn1c(=O)nc2n(-c3ccc(Br)cc3)c3ccccc3nc-2c1=O | 28.7 µM | 26.4 µM | 36.8 µM | 6.57 µM | 17 µM | 13.2 µM | 11.1 µM | 15.1 µM |  | 28.5 µM |  |  |  |  |  |  |  |  |  | 
30 | CCCCC[C@@H]1CCCC2NC(CCCCCO[Si](c3ccccc3)(c3ccccc3)C(C)(C)C)CCC21 (stereo partly drawn) | 29.4 µM | 34.8 µM | 25.4 µM | 31.6 µM | 31.3 µM | 26.5 µM |  | 33.9 µM |  | 36.6 µM |  |  |  |  |  |  |  |  |  | 
31 | Cc1c(C)c2cc3c(=O)c(CCl)coc3c(C)c2oc1=O | > 100 µM | > 100 µM | > 100 µM | > 100 µM | > 100 µM | > 100 µM | > 100 µM | > 100 µM |  | > 100 µM |  |  |  |  |  |  |  |  |  | 
32 | COc1ccc([N+](=O)[O-])c2c(NCCCN(C)C)c(C)c(C)nc12 | > 100 µM | > 100 µM | > 100 µM | > 100 µM | > 100 µM | > 100 µM | > 100 µM | > 100 µM | > 100 µM |  |  |  |  |  |  |  |  |  |  | 
